The values that follow are results of earlier work, collected in patent US20070293534A1, “Process for the preparation of mivacurium chloride” (FARMABIOS S.P.A., priority 2006, published 2007).

The structures appear in SMILES notation.

The conditions of this data set: for neuromuscolar blocking potencies compared with each other: trans-trans versus cis-trans diastereoisomer.

For the compound `COc1cc2c(cc1OC)[C@@H](Cc1cc(OC)c(OC)c(OC)c1)[N@@+](C)(CCCOC(=O)CC/C=C/CCC(=O)OCCC[N@+]1(C)CCc3cc(OC)c(OC)cc3[C@H]1Cc1cc(OC)c(OC)c(OC)c1)CC2.[Cl-].[Cl-]` [cis-trans], the “neuromuscolar blocking potencies compared with each other” value was “not significantly different from each other”. Regarding `COc1cc2c(cc1OC)[C@@H](Cc1cc(OC)c(OC)c(OC)c1)[N@@+](C)(CCCOC(=O)CC/C=C/CCC(=O)OCCC[N@@+]1(C)CCc3cc(OC)c(OC)cc3[C@H]1Cc1cc(OC)c(OC)c(OC)c1)CC2.[Cl-].[Cl-]` (single isomer, unassigned) [cis-cis diastereoisomer], the “neuromuscolar blocking potency relative to the other two diastereoisomers” value (fraction of the potency of the trans-trans and cis-trans diastereoisomers, estimated) is “approximately one tenth”. For `COc1cc2c(cc1OC)[C@@H](Cc1cc(OC)c(OC)c(OC)c1)[N@+](C)(CCCOC(=O)CC/C=C/CCC(=O)OCCC[N@+]1(C)CCc3cc(OC)c(OC)cc3[C@H]1Cc1cc(OC)c(OC)c(OC)c1)CC2.[Cl-].[Cl-]` [trans-trans], the “neuromuscolar blocking potencies compared with each other” value is given as “not significantly different from each other”.
